A short description of assay [1]: PROTAC activity at VHL/BRD4 in human HeLa cells assessed as degradation of BRD4 incubated for 16 hrs by Western blot analysis. Format: cell-based. For orientation: A western blot detects proteins with antibodies after separation by electrophoresis.
The target of assay [2] is T1, Protein cereblon/Androgen receptor (Homo sapiens, UniProt P10275+Q96SW2). Briefly: PROTAC activity at AR/CRBN in human LNCaP cells assessed as protein degradation incubated for 24 hrs by Western blot analysis. Format: cell-based.
T1 sequence (P10275 whole entry): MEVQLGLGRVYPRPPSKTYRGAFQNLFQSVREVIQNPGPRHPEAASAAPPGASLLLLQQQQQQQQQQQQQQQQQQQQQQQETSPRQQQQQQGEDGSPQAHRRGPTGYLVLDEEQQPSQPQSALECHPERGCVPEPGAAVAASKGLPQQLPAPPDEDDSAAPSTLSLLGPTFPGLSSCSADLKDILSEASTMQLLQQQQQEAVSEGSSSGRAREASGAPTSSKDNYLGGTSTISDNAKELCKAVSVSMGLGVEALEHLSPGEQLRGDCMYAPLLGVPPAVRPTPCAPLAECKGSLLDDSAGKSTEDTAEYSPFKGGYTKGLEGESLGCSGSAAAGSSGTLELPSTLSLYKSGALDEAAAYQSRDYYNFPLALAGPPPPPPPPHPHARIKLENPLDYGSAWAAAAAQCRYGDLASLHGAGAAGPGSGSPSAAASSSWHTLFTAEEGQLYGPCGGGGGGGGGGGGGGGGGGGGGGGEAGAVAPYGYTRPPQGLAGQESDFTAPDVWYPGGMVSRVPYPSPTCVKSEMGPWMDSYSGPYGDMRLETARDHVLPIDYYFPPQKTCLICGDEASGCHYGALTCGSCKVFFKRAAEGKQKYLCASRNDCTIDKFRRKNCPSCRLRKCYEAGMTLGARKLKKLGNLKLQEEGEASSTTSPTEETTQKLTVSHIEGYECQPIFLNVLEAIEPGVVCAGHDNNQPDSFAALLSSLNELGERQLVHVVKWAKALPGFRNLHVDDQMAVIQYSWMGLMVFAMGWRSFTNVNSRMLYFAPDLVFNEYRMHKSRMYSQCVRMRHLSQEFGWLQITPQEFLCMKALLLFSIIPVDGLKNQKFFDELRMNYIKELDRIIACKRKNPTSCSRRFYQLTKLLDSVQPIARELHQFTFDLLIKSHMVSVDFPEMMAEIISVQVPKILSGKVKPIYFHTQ
T1 sequence (Q96SW2 whole entry): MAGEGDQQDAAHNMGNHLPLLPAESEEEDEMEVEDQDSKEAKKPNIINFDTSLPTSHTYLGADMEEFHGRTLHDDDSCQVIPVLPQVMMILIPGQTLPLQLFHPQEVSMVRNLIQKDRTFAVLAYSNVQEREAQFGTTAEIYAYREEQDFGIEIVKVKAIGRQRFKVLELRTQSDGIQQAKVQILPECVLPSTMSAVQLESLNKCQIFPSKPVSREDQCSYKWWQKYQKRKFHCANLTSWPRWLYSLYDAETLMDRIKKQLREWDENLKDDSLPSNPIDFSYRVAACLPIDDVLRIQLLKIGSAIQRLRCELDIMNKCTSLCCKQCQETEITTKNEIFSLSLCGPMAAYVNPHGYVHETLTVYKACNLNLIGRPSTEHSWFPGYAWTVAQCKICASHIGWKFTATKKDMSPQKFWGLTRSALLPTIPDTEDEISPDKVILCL
The target in assay [3] is Protein cereblon/Cyclin-dependent kinase 9 (Homo sapiens, UniProt P50750+Q96SW2). Nature of the assay: PROTAC activity at CRBN/CDK9 in human MV4-11 cells assessed as induction of CDK9 degradation measured for 3 days by Western blot analysis. Format: cell-based.
Chain of Protein cereblon/Cyclin-dependent kinase 9 (P50750 whole entry): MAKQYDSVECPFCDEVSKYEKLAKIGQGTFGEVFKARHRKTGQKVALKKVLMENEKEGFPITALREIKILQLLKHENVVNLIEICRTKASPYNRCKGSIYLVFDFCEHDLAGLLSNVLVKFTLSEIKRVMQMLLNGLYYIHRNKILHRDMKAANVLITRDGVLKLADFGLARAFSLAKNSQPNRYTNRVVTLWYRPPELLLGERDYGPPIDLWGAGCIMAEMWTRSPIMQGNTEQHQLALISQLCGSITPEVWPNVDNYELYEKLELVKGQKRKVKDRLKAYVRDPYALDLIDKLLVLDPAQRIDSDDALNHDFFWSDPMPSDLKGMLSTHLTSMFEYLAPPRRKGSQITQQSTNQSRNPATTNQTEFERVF
Chain of Protein cereblon/Cyclin-dependent kinase 9 (Q96SW2 whole entry): as the sequence (Q96SW2 whole entry) above
Assay [4] is described as follows: Downregulation of induced PCSK9 expression in HEK293 cells by Western blot analysis. Format: functional, cell-based. The settings on record: Homo sapiens.
Assay [5] has as its target Proprotein convertase subtilisin/kexin type 9 (Homo sapiens, UniProt Q8NBP7). Nature of the assay: Binding affinity to PCSK9 (unknown origin) assessed as inhibition constant.
A short description of assay [6]: PROTAC activity at SMARCA2/VHL in human MV4-11 cells assessed as protein degradation incubated for 18 hrs by Western blot analysis. Format: cell-based. The settings on record: MV4-11, 18 h.
In assay [7] the target is von Hippel-Lindau disease tumor suppressor/Bromodomain-containing protein 4 (Homo sapiens, UniProt O60885+P40337). Briefly: PROTAC activity at human VHL/BRD4 in human HeLa cells assessed as degradation of BRD4 incubated for 24 hrs by Western blot analysis. Format: cell-based.
Chain of von Hippel-Lindau disease tumor suppressor/Bromodomain-containing protein 4 (P40337 whole entry, looked up, other chains not shown): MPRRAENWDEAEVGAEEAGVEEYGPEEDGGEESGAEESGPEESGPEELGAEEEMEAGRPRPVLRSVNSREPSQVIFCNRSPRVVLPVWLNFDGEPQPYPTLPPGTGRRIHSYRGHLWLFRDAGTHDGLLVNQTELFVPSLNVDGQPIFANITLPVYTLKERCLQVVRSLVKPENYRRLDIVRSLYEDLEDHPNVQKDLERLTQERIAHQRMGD
For assay [8], the target named is Protein cereblon/Poly [ADP-ribose] polymerase 1 (Homo sapiens, UniProt P09874+Q96SW2). Briefly: PROTAC activity at CRBN/PARP1 in human MDA-MB-231 cells assessed as degradation of PARP1 measured after 24 hrs by Western blot analysis. Format: cell-based.
Chain of Protein cereblon/Poly [ADP-ribose] polymerase 1 (P09874 whole entry): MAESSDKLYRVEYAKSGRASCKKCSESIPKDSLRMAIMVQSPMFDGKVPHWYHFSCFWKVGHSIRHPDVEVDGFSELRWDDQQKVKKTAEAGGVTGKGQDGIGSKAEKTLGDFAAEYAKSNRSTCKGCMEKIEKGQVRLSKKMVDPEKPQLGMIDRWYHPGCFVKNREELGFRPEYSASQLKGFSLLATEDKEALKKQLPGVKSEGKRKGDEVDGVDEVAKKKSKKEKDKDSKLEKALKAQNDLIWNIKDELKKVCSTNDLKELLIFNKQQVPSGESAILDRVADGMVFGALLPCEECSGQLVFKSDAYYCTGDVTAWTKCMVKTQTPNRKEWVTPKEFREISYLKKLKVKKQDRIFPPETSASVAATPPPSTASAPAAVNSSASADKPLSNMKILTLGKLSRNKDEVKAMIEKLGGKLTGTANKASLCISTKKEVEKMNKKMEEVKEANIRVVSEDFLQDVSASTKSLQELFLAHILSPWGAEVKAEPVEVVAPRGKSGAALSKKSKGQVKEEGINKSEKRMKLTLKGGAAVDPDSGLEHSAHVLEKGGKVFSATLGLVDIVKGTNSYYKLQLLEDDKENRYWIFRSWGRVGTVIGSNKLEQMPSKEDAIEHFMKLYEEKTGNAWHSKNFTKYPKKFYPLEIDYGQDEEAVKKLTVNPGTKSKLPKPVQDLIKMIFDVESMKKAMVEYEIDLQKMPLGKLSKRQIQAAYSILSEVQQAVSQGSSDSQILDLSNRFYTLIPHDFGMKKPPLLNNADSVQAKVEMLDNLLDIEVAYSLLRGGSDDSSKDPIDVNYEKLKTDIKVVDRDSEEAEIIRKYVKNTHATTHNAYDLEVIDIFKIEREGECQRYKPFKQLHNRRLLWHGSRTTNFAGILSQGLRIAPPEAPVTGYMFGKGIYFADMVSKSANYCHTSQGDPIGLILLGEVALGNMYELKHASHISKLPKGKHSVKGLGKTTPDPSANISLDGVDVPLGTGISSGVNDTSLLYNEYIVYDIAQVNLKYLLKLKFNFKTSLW
Chain of Protein cereblon/Poly [ADP-ribose] polymerase 1 (Q96SW2 whole entry): as the sequence (Q96SW2 whole entry) above
Assay [9] concerns the target von Hippel-Lindau disease tumor suppressor/Tyrosine-protein kinase BTK. Nature of the assay: PROTAC activity at VHL/BTK in human THP-1 cells assessed as induction of BTK degradation incubated for 24 hrs by immunoblotting analysis.
Assay [10] can be described thus: PROTAC activity at human VHL/BRD4 in human MV4-11 cells assessed as degradation of BRD4 incubated for 16 hrs by Western blot analysis. The settings on record: MV4-11, 16 h. Format: cell-based.
Assay [11] concerns the target von Hippel-Lindau disease tumor suppressor/Bromodomain-containing protein 9 (Homo sapiens, UniProt Q9H8M2+P40337). Nature of the assay: PROTAC activity at VHL/BRD9 in human HeLa cells assessed as protein degradation by Western blot analysis. Format: cell-based.
Assay [12] deals with T1, Protein cereblon/Androgen receptor. Nature of the assay: PROTAC activity at CRBN/AR in human VCaP cells assessed as induction of AR degradation incubated for 24 hrs by Western blot analysis. Format: cell-based.

A value given as a limit tells only on which side of the number the result lay.

By DC50 is commonly meant the concentration at which degradation of the target reaches its halfway point. The term IC50 denotes the point on the concentration scale where inhibition reaches its midpoint. Lower therefore signals greater potency. A word on the Ki: it is a dissociation constant, usually derived from enzyme kinetics or from competition with a known ligand.

Chain of Proprotein convertase subtilisin/kexin type 9 (Q8NBP7 31-152 limits assumed): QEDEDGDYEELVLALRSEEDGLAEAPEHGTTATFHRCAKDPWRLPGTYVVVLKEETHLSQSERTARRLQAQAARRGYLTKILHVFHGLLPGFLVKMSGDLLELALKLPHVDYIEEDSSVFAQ
Chain of Proprotein convertase subtilisin/kexin type 9 (Q8NBP7 153-692 limits assumed): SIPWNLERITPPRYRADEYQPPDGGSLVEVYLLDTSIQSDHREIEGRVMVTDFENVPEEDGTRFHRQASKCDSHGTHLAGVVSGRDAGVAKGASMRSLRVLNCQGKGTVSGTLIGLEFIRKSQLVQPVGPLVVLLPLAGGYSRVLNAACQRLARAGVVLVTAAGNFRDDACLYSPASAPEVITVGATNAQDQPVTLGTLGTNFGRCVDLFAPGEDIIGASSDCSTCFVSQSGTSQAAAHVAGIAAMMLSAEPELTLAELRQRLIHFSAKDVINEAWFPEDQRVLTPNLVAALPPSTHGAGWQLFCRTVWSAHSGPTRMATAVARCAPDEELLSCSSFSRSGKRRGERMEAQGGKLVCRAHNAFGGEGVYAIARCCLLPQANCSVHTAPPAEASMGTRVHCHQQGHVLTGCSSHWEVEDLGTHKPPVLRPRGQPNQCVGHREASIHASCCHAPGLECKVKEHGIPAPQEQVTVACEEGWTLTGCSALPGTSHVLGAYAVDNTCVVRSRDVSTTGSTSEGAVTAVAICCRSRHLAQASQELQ
Chain of von Hippel-Lindau disease tumor suppressor/Bromodomain-containing protein 9 (Q9H8M2 whole entry): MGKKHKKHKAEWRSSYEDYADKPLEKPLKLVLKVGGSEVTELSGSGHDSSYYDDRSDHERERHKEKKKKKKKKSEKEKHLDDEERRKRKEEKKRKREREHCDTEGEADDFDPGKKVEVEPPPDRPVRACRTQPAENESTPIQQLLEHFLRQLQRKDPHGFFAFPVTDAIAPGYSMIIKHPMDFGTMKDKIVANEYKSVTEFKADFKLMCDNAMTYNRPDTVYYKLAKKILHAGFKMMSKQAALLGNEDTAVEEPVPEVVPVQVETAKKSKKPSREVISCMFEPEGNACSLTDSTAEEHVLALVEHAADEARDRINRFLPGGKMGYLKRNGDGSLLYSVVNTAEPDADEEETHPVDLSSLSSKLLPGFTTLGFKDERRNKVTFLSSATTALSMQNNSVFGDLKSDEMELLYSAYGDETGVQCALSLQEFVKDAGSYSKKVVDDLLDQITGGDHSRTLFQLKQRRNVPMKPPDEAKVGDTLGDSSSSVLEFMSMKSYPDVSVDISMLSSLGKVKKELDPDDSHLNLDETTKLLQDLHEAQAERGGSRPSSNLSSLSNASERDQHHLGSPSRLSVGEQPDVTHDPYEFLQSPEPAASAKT
Chain of von Hippel-Lindau disease tumor suppressor/Bromodomain-containing protein 9 (P40337 whole entry): as the sequence (P40337 whole entry, looked up, other chains not shown) above

Consider `Cc1sc2c(c1C)C(c1ccc(Cl)cc1)=N[C@@H](CC(=O)NCCCCOc1ccc(Oc3ccc(N(Cc4ccccc4)C(=O)CCl)cc3)cc1)c1nnc(C)n1-2`, for which the DC50 in [1] was less than 10000 nM.
For `CC1(C)[C@H](NC(=O)c2ccc(OCC(=O)NCCCOCCOCCOCCCN(C(=O)CCl)C(C(=O)NCc3ccccc3)c3ccc(Cl)c(Cl)c3)cc2)C(C)(C)[C@H]1Oc1ccc(C#N)c(Cl)c1` (some centres undefined), the 50% degradation concentration (DC50) in assay [2] was less than 10000 nM.
For the molecule `CCOC(=O)C[C@@H](c1ccc(C)c(CN2C[C@@H](C)Oc3ccccc3S2(=O)=O)c1)c1cc(OCCNC(=O)CNC(=O)C[C@@H]2N=C(c3ccc(Cl)cc3)c3c(sc(C)c3C)-n3c(C)nnc32)c2c(c1)nnn2C`, in assay [3], the half-maximal degradation concentration (DC50) was less than 500 nM.
In the case of `CC(C)(C)OC(=O)N=C(NCCC[C@H](NC(=O)OC(C)(C)C)C(=O)NCCOCCOc1cc2c(cc1Oc1ccc(-c3ccc(C(=O)O)cc3)c(F)c1)[C@@](C)(CC(=O)Nc1nccs1)NCC2)NC(=O)OC(C)(C)C`, inhibition in assay [4] was half-maximal at 3400 nM (IC50). Further, the Ki in [5] was found to be 107 nM.
For `Cc1ncsc1-c1ccc(CNC(=O)[C@@H]2C[C@@H](O)CN2C(=O)[C@@H](NC(=O)C2(F)CC2)C(C)(C)C)c(OCCOc2ccc(CN3CCN(c4cc(-c5ccccc5O)nnc4N)CC3)cc2)c1`, in assay [6], the DC50 is 6 nM.
On to `Cc1sc2c(c1C)C(c1ccc(Cl)cc1)=NC(CC(=O)NCCOCCOCCNC(=O)c1cccc(S(=O)(=O)Nc3ccc(C)c4c(C#N)c[nH]c34)c1)c1nnc(C)n1-2` (centres undefined), for which the half-maximal degradation concentration (DC50) in assay [7] was 10800 nM.
Regarding `Cc1ncsc1-c1ccc([C@H](C)NC(=O)[C@@H]2C[C@@H](O)CN2C(=O)[C@H](c2cc(N3CCC(CN4CCC(OC5CC(Oc6cc(N7[C@H]8CC[C@H]7CN(c7cc(-c9ccccc9O)nnc7N)C8)ccn6)C5)CC4)CC3)no2)C(C)C)cc1` (some centres undefined), the half-maximal degradation concentration (DC50) in [6] stood at 0.03 nM.
On the same count and under the same terms, the figure for `Cc1ncsc1-c1ccc([C@H](CC[C@H](C)CCN2CCC(c3ccc4c(c3)n(C3CCCC3)c3nc(=O)c5c(Br)cccc5n43)CC2)NC(=O)[C@@H]2C[C@@H](O)CN2C(=O)[C@@H](NC(=O)C2(F)CC2)C(C)(C)C)cc1` is 1 nM.
On to `Cc1sc2c(c1C)C(c1ccc(Cl)cc1)=N[C@@H](CC(=O)NCCCCOc1ccc(C3CC(c4ccc(Br)cc4)=NN3C(=O)CCl)cc1)c1nnc(C)n1-2` (some centres undefined), for which the 50% degradation concentration (DC50) in assay [1] is less than 10000 nM.
Consider `Cc1sc2c(c1C)C(c1ccc(Cl)cc1)=N[C@@H](CC(=O)NCCCCCCCCCCNC(=O)[C@@]13CCC(C)(C)C[C@@H]1[C@@H]1C(=O)C=C4[C@]5(C)C=C(C#N)C(=O)C(C)(C)[C@H]5CC[C@]4(C)[C@@]1(C)CC3)c1nnc(C)n1-2`, for which the DC50 in assay [3] is less than 200 nM.
In the case of `COc1ccc(C2=N[C@H](c3ccc(Cl)cc3)[C@H](c3ccc(Cl)cc3)N2C(=O)N2CCN(CC(=O)NCCOCCOCCOCCOCCn3cc(-c4ccc(-n5cc6cccc(C(N)=O)c6n5)cc4)nn3)C(=O)C2)c(OC(C)C)c1`, in assay [8], the DC50 was less than 10000 nM.
Consider `COc1cc(/C=C/C(=O)N2CCC=CC2=O)cc(OC)c1OCCN1CCN(C(=O)CN2CCC(C(=O)Nc3ncc(SCc4ncc(C(C)(C)C)o4)s3)CC2)CC1`, for which the half-maximal degradation concentration (DC50) in [3] stood at 9 nM.
As for `CN[C@@H](C)C(=O)N[C@H](C(=O)N1Cc2cc(OCCOCCOCCOCCOCCOC(=O)N3CCC[C@H](n4nc(-c5ccc(Oc6ccc(F)cc6F)cc5)c(C(N)=O)c4N)C3)ccc2C[C@@H]1C(=O)NC1CCCc2ccccc21)C(C)(C)C` (some centres undefined), in [9], the DC50 amounted to 182 nM.
For the molecule `Cc1sc2c(c1C)C(c1ccc(Cl)cc1)=N[C@H](CC(=O)NCCCn1cc(CNC(=O)c3ccc(S(=O)(=O)N(CC#N)C(=O)CC45CC6CC(CC(C6)C4)C5)cc3)nn1)c1nnc(C)n1-2`, the DC50 in [10] is 3000 nM.
Take `COC(=O)C[C@H]1[C@]2(C)C3=C(C)[C@H](c4ccoc4-c4ccc(C(=O)NCCCNC(=O)C[C@@H]5N=C(c6ccc(Cl)cc6)c6c(sc(C)c6C)-n6c(C)nnc65)cc4)C[C@H]3O[C@@H]2[C@@H]2OC(=O)[C@]3(C)C=CC(=O)[C@@]1(C)[C@@H]23`: the half-maximal degradation concentration (DC50) in assay [1] was 36000 nM.
In the case of `Cc1sc2c(c1C)C(c1ccc(Cl)cc1)=N[C@@H](CC(=O)NCCCOCCOCCOCCCNC(=O)COc1c(Br)cc(/C=C3\C(=O)Nc4ccc(I)cc43)cc1Br)c1nnc(C)n1-2` (stereo in doubt), in assay [10], the DC50 is 900 nM.
Regarding `COc1cc(-c2cn(C)c(=O)c3cnccc23)c(OC)cc1CN1CCC(OCCCCCC(=O)N2CCN(c3ccc4c(NCCN)nc(C5(c6ccc(Cl)cc6)CCCCC5)nc4c3)CC2)CC1`, the DC50 in assay [11] amounted to 90 nM.
As for `COc1cc(O[C@H]2C(C)(C)[C@H](NC(=O)c3ccc(N4CCC(CN5CCN(c6ccc(C(=O)N[C@H]7CCC(=O)NC7=O)c(F)c6)CC5)CC4)cc3)C2(C)C)ccc1C#N` [LUXDEGALUTAMIDE], in [12], the 50% degradation concentration (DC50) was less than 1 nM.

The values are drawn from ChEMBL document CHEMBL6109046, “Recent advances in developing targeted protein degraders” (Eur J Med Chem, 2025).
